From US12661410B2, “Compounds for targeted degradation of RET” (C4 Therapeutics, Inc., priority 2020, dated 2026) come the findings set out here.

The target in one assay is T1, RET (658-1114) (Homo sapiens, UniProt P07949).
T1 construct: 658-1114; expressed in transfected cells; host or cells: 293T.144 (293T cells, generated in-house)
T1 sequence (P07949 658-1114): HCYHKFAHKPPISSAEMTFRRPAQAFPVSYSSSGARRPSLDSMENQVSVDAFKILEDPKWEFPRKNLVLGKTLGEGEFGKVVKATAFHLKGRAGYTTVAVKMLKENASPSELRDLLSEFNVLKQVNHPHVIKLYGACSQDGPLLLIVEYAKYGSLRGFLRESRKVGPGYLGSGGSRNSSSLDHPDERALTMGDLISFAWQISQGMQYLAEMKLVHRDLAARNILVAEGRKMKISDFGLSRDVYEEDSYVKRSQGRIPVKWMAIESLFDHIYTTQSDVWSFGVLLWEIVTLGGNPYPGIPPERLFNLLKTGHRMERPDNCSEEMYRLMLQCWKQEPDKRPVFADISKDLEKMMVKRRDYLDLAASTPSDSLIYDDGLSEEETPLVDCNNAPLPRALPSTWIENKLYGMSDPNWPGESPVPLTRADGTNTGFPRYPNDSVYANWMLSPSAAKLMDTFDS
As to the kind of experiment: HiBiT-Degradation, RET wild-type degradation assay (Nano-Glo HiBiT Lytic), 293T.144 cells. Format: cell-based. Particulars: HiBiT-Degradation; for DC50 / Emax: 6.0 hours; for DC50: read-out: 293T.144 RET (658-1114) 6.0 hours (DC50); for Emax: read-out: 293T.144 RET (658-1114) 6.0 hours (Emax). Summed up: (§1)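 Cells were plated and dosed with an 11-point half-log series (highest 10 μM) in duplicate. After 6 hours they were lysed with HiBiT lytic detection reagent and luminescence measured. DC50 and percent remaining protein (Emax) came from the dose-response curves.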

The target of another assay is T2, RET(KD: 658-1114 G810R) (Homo sapiens, UniProt P07949, G810R).
T2 construct: 658-1114; expressed in transfected cells; host or cells: 293T.165 (293T cells, generated in-house)
T2 sequence (P07949 658-1114 G810R): T1 sequence (P07949 658-1114) with G153R
The experiment in a line: HiBiT-Degradation, RET G810R degradation assay (Nano-Glo HiBiT Lytic), 293T.165 cells. Format: cell-based. The conditions noted are these: for Emax / DC50: 6.0 hours; for Emax: % remaining protein, read-out: 293T.165 RET(KD: 658-1114 G810R) 6.0 hours (Emax); for DC50: read-out: 293T.165 RET(KD: 658-1114 G810R) 6.0 hours (DC50). Summed up:
as §1

Where [1] appears, read: half-maximal degradation concentration.

Structures are written as SMILES. Numbering of substitutions follows the chain as printed. Like-named read-outs stand apart in the source and are kept apart here. Some results are limits rather than exact numbers.

`CC(C)NC(=O)C1(C)CCN(c2ccc(-c3cc(-c4ccc(N5CCN(C(=O)CN6CCC(c7ccc(NC8CCC(=O)NC8=O)cc7)CC6)CC5)cc4)cn4ncc(C#N)c34)cn2)CC1` (stereo not shown) [Compound 35, 1-(5-(3-Cyano-6-(4-(4-(2-(4-(4-((2,6-dioxopiperidin-3-yl)amino)phenyl)piperidin-1-yl)acetyl)piperazin-1-yl)phenyl)pyrazolo[1,5-a]pyridin-4-yl)pyridin-2-yl)-N-isopropyl-4-methylpiperidine-4-carboxamide]: at RET (658-1114), the “293T.144 RET (658-1114) 6.0 hours (IP) [nM]” value (shortened to “293T.144 RET”) is “++++ (< 50 nM = ++++)”; the DC50 (usually the concentration giving 50% degradation) is under 50 nM; the Emax (usually the greatest response seen or fitted, relative to the assay's reference) was under 30%. In addition, at RET(KD: 658-1114 G810R), the Emax is under 30%. For the same compound, the DC50 on RET(KD: 658-1114 G810R) (setting [1]) was under 50 nM. For the same compound, on RET(KD: 658-1114 G810R) (HiBiT-Degradation), the “293T.165 RET(KD: 658-1114 G810R) 6.0 hours (Emax)” value is reported as “++++ (< 30% = ++++)”, the “293T.165 RET(KD: 658-1114 G810R) 6.0 hours (IP) [nM]” value is given as “++++ (< 50 nM = ++++)” and the DC50 is under 50 nM.
In the case of `N#Cc1cnn2cc(-c3cnn(C4CCN(C(=O)CC5(O)CCN(c6ccc(NC7CCC(=O)NC7=O)cc6F)CC5)CC4)c3)nc(-c3ccc(N4CCC(c5ncccn5)CC4)nc3)c12` (stereo not shown) [Compound 36, 6-[1-[1-[2-[1-[4-[(2,6-dioxo-3-piperidyl)amino]-2-fluoro-phenyl]-4-hydroxy-4-piperidyl]acetyl]-4-piperidyl]pyrazol-4-yl]-4-[6-(4-pyrimidin-2-yl-1-piperidyl)-3-pyridyl]pyrazolo[1,5-a]pyrazine-3-carbonitrile], at RET (658-1114), the “293T.144 RET” value was “++++ (< 50 nM = ++++)”, the DC50 is under 50 nM and the Emax is under 30%. The Emax at RET(KD: 658-1114 G810R) is under 30%. Moreover, the DC50 on RET(KD: 658-1114 G810R) (setting [1]) was under 50 nM. In addition, at RET(KD: 658-1114 G810R) (HiBiT-Degradation), the “293T.165 RET(KD: 658-1114 G810R) 6.0 hours (Emax)” value is “++++ (< 30% = ++++)”, the “293T.165 RET(KD: 658-1114 G810R) 6.0 hours (IP) [nM]” value is recorded as “++++ (< 50 nM = ++++)” and the half-maximal degradation concentration (DC50) was under 50 nM.
In the case of `N#Cc1cnn2cc(-c3cnn(C4CCN(C(=O)CN5CCC(c6ccc(OC7CCC(=O)NC7=O)cc6F)CC5)CC4)c3)nc(-c3ccc(N4CCN(Cc5cc(F)ccn5)CC4)cc3)c12` (stereo not shown) [Compound 38, 6-(1-(1-(2-(4-(4-((2,6-Dioxopiperidin-3-yl)oxy)-2-fluorophenyl)piperidin-1-yl)acetyl)piperidin-4-yl)-1H-pyrazol-4-yl)-4-(4-(4-((4-fluoropyridin-2-yl)methyl)piperazin-1-yl)phenyl)pyrazolo[1,5-a]pyrazine-3-carbonitrile], on RET (658-1114), the “293T.144 RET” value is “++++ (< 50 nM = ++++)”, the DC50 is under 50 nM and the Emax was under 30%. For the same compound, at RET(KD: 658-1114 G810R), the Emax is under 50%. Besides, the DC50 at RET(KD: 658-1114 G810R) (setting [1]) is under 100 nM. Besides, on RET(KD: 658-1114 G810R) (HiBiT-Degradation), the “293T.165 RET(KD: 658-1114 G810R) 6.0 hours (Emax)” value is “+++ (<50% = +++)”, the “293T.165 RET(KD: 658-1114 G810R) 6.0 hours (IP) [nM]” value was “++++ (< 50 nM = ++++)” and the DC50 is under 100 nM.
For the compound `CCC1(C(=O)NC(C)C)CCN(c2ccc(-c3cc(-c4ccc(N5CCC(O)(CCN6CCC(c7ccc(NC8CCC(=O)NC8=O)cc7F)CC6)CC5)cc4)cn4ncc(C#N)c34)cn2)CC1` (stereo not shown) [Compound 39, 1-(5-(3-Cyano-6-(4-(4-(2-(4-(4-((2,6-dioxopiperidin-3-yl)amino)-2-fluorophenyl)piperidin-1-yl)ethyl)-4-hydroxypiperidin-1-yl)phenyl)pyrazolo[1,5-a]pyridin-4-yl)pyridin-2-yl)-4-ethyl-N-isopropylpiperidine-4-carboxamide], on RET (658-1114), the “293T.144 RET” value is reported as “++++ (< 50 nM = ++++)”, the DC50 was under 50 nM and the Emax was under 30%. Further, the Emax on RET(KD: 658-1114 G810R) is under 30%. In addition, on RET(KD: 658-1114 G810R) (setting [1]), the DC50 is under 50 nM. At RET(KD: 658-1114 G810R) (HiBiT-Degradation), the “293T.165 RET(KD: 658-1114 G810R) 6.0 hours (Emax)” value is “++++ (< 30% = ++++)”, the “293T.165 RET(KD: 658-1114 G810R) 6.0 hours (IP) [nM]” value is reported as “++++ (< 50 nM = ++++)” and the DC50 was under 50 nM.
As to `CCC1(C(=O)NC2CCOCC2)CCN(c2ccc(-c3cc(-c4cnn([C@H]5CC[C@H](CCN6CCC(c7ccc(NC8CCC(=O)NC8=O)cc7F)CC6)CC5)c4)cn4ncc(C#N)c34)cn2)CC1` (stereo partly drawn) [Compound 40, 1-(5-(3-Cyano-6-(1-((trans)-4-(2-(4-(4-((2,6-dioxopiperidin-3-yl)amino)-2-fluorophenyl)piperidin-1-yl)ethyl)cyclohexyl)-1H-pyrazol-4-yl)pyrazolo[1,5-a]pyridin-4-yl)pyridin-2-yl)-4-ethyl-N-(tetrahydro-2H-pyran-4-yl)piperidine-4-carboxamide], on RET (658-1114), the “293T.144 RET” value is listed as “++++ (< 50 nM = ++++)”, the DC50 is under 50 nM and the Emax was under 30%. Moreover, the Emax on RET(KD: 658-1114 G810R) is under 30%. Also, the DC50 on RET(KD: 658-1114 G810R) (setting [1]) is under 50 nM. In addition, at RET(KD: 658-1114 G810R) (HiBiT-Degradation), the “293T.165 RET(KD: 658-1114 G810R) 6.0 hours (Emax)” value is on record as “++++ (< 30% = ++++)”, the “293T.165 RET(KD: 658-1114 G810R) 6.0 hours (IP) [nM]” value was “++++ (< 50 nM = ++++)” and the DC50 is under 50 nM.
`CC(=O)N1CCN(c2ccc(-c3cc(-c4ccc(N5CCN(C(=O)CN6CCC(c7ccc(NC8CCC(=O)NC8=O)cc7)CC6)CC5)cc4)cn4ncc(C#N)c34)cn2)CC1` (stereo not shown) [Compound 41, 4-[6-(4-acetylpiperazin-1-yl)-3-pyridyl]-6-[4-[4-[2-[4-[4-[(2,6-dioxo-3-piperidyl)amino]phenyl]-1-piperidyl]acetyl]piperazin-1-yl]phenyl]pyrazolo[1,5-a]pyridine-3-carbonitrile]: at RET (658-1114), the “293T.144 RET” value is listed as “++++ (< 50 nM = ++++)”, the DC50 was under 50 nM and the Emax was under 30%. For the same compound, on RET(KD: 658-1114 G810R), the Emax is under 50%. In addition, the DC50 on RET(KD: 658-1114 G810R) (setting [1]) is under 100 nM. In addition, at RET(KD: 658-1114 G810R) (HiBiT-Degradation), the “293T.165 RET(KD: 658-1114 G810R) 6.0 hours (Emax)” value is given as “+++ (<50% = +++)”, the “293T.165 RET(KD: 658-1114 G810R) 6.0 hours (IP) [nM]” value is given as “++++ (< 50 nM = ++++)” and the DC50 is under 100 nM.
Turning to `CC(=O)N1CCN(c2ccc(-c3cc(-c4cnn(C5CCN(C(=O)CN6CCC(c7ccc(NC8CCC(=O)NC8=O)cc7)CC6)CC5)c4)cn4ncc(C#N)c34)cn2)CC1` (stereo not shown) [Compound 42, 4-[6-(4-acetylpiperazin-1-yl)-3-pyridyl]-6-[1-[1-[2-[4-[4-[(2,6-dioxo-3-piperidyl)amino]phenyl]-1-piperidyl]acetyl]-4-piperidyl]pyrazol-4-yl]pyrazolo[1,5-a]pyridine-3-carbonitrile], at RET (658-1114), the “293T.144 RET” value is given as “++++ (< 50 nM = ++++)”, the half-maximal degradation concentration (DC50) is under 50 nM and the Emax is under 30%. Moreover, the Emax at RET(KD: 658-1114 G810R) was under 50%. Also, on RET(KD: 658-1114 G810R) (setting [1]), the DC50 was under 100 nM. At RET(KD: 658-1114 G810R) (HiBiT-Degradation), the “293T.165 RET(KD: 658-1114 G810R) 6.0 hours (Emax)” value is “+++ (<50% = +++)”, the “293T.165 RET(KD: 658-1114 G810R) 6.0 hours (IP) [nM]” value is given as “++++ (< 50 nM = ++++)” and the DC50 was under 100 nM.
Turning to `CN(C)c1ccc(-c2cc(-c3cnn([C@H]4CC[C@@H](CCN5CCC(c6ccc(NC7CCC(=O)NC7=O)cc6)CC5)CC4)c3)cn3ncc(C#N)c23)cn1` (stereo partly shown) [Compound 43, 4-[6-(dimethylamino)-3-pyridyl]-6-[1-[(1s,4s)-4-[2-[4-[4-[(2,6-dioxo-3-piperidyl)amino]phenyl]-1-piperidyl]ethyl]cyclohexyl]pyrazol-4-yl]pyrazolo[1,5-a]pyridine-3-carbonitrile], on RET (658-1114), the “293T.144 RET” value is “++++ (< 50 nM = ++++)”, the 50% degradation concentration (DC50) is under 50 nM and the maximal response (Emax) was under 30%. Also, the Emax at RET(KD: 658-1114 G810R) was under 50%. The 50% degradation concentration (DC50) on RET(KD: 658-1114 G810R) (setting [1]) was under 100 nM. Besides, at RET(KD: 658-1114 G810R) (HiBiT-Degradation), the “293T.165 RET(KD: 658-1114 G810R) 6.0 hours (Emax)” value was “+++ (<50% = +++)”, the “293T.165 RET(KD: 658-1114 G810R) 6.0 hours (IP) [nM]” value is given as “++++ (< 50 nM = ++++)” and the DC50 is under 100 nM.
